Measured values reported in ChEMBL document CHEMBL1201862, “PubChem BioAssay data set” (2004).
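Protocol summary: plate cells (96-well), add compound at 5 concentrations, incubate 48 h, interpolate endpoints linearly. At the GI50, growth is halved.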 Activity calls are given as the source filed them. Cut-off read from the data, not from the text of the source: active = GI50 up to about 1.1 µM and inactive = higher.

How the values were obtained:
Test in all cases: inhibition of tumour cell growth, NCI panel, 48 h
[1] = system: HOP-18
[2] = system: LOX IMVI
[3] = system: TK-10
[4] = system: SK-MEL-2
[5] = system: IGROV-1
[6] = system: SW-620
[7] = system: COLO 205
[8] = system: SF-295
[9] = system: M14
[10] = system: HCC 2998
[11] = system: RXF 393
[12] = system: SNB-75
[13] = system: SF-268
[14] = system: NCI-H522
[15] = system: SN12C
[16] = system: UACC-257
[17] = system: KM-20L2
[18] = system: SR
[19] = system: DLD-1
[20] = system: DMS-273
[21] = system: NCI-H23
[22] = system: Malme-3M
[23] = system: SF-539
[24] = system: SK-MEL-5
[25] = system: MDA-MB-231
[26] = system: HCT-116
[27] = system: K562
[28] = system: SNB-19
[29] = system: UACC-62
[30] = system: MCF7
[31] = system: CAKI-1
[32] = system: RPMI-8226
[33] = system: T47D
[34] = system: MDA-N
[35] = system: MOLT-4
[36] = system: NCI/ADR-RES
[37] = system: A549
[38] = system: HOP-62
[39] = system: OVCAR-8
[40] = system: ACHN
[41] = system: SK-OV-3
[42] = system: A498
[43] = system: Hs-578T
[44] = system: HT-29
[45] = system: U-251
[46] = system: HL-60
[47] = system: OVCAR-5
[48] = system: EKVX
[49] = system: HOP-92
[50] = system: DU-145
[51] = system: CCRF-CEM
[52] = system: SK-MEL-28
[53] = system: NCI-H226
[54] = system: 786-0
[55] = system: HCT-15
[56] = system: M19-MEL
[57] = system: OVCAR-4
[58] = system: LXFL 529
[59] = system: OVCAR-3
[60] = system: PC-3
[61] = system: UO-31
[62] = system: XF498
[63] = system: DMS-114
[64] = system: NCI-H460
[65] = system: KM12

With `CCCCCCCCCCCCC(=O)OC(c1cnco1)c1nc(C(O)CC(O)C(O)C(C)O)co1` (stereo not given) the GI50 [1] was 3.48 µM (inactive), the GI50 [2] was 0.144 µM (active) and the GI50 [3] was 5.62 µM (inactive). For the same molecule, the GI50 [4] was 0.63 µM (active), the GI50 [5] was 0.339 µM (active) and the GI50 [6] was 0.114 µM (active). For the same molecule, the GI50 [7] was 0.273 µM (active), the GI50 [8] was 0.467 µM (active) and the GI50 [9] was 0.491 µM (active). For the same molecule, the GI50 [10] was 1.31 µM (inactive), the GI50 [11] was 1.38 µM (inactive) and the GI50 [12] was 0.581 µM (active). For the same molecule, the GI50 [13] was 0.333 µM (active), the GI50 [14] was 0.787 µM (active) and the GI50 [15] was 1.78 µM (inactive). For the same molecule, the GI50 [16] was 0.755 µM (active), the GI50 [17] was 1.23 µM (inactive) and the GI50 [18] was < 0.0407 µM (active). The GI50 [19] was 0.946 µM (active), the GI50 [20] was 0.104 µM (active) and the GI50 [21] was 0.336 µM (active). The GI50 [22] was 0.828 µM (active), the GI50 [23] was 0.942 µM (active) and the GI50 [24] was 0.719 µM (active). For the same molecule, the GI50 [25] was 1.89 µM (inactive), the GI50 [26] was 0.157 µM (active) and the GI50 [27] was 0.21 µM (active). The GI50 [28] was 11.3 µM (inactive), the GI50 [29] was 0.341 µM (active) and the GI50 [30] was 0.454 µM (active). For the same molecule, the GI50 [31] was 0.265 µM (active), the GI50 [32] was 0.273 µM (active) and the GI50 [33] was 4.71 µM (inactive). The GI50 [34] was 1.95 µM (inactive), the GI50 [35] was 0.144 µM (active) and the GI50 [36] was > 10 µM (inactive). For the same molecule, the GI50 [37] was 0.264 µM (active), the GI50 [38] was 2.65 µM (inactive) and the GI50 [39] was 0.299 µM (active). The GI50 [40] was 1.45 µM (inactive), the GI50 [41] was 3.94 µM (inactive) and the GI50 [42] was 20.9 µM (inactive). The GI50 [43] was 1.53 µM (inactive), the GI50 [44] was 0.351 µM (active) and the GI50 [45] was 0.129 µM (active). For the same molecule, the GI50 [46] was 0.849 µM (active), the GI50 [47] was 11.6 µM (inactive) and the GI50 [48] was 11.8 µM (inactive). The GI50 [49] was 1.34 µM (inactive), the GI50 [50] was > 10 µM (inactive) and the GI50 [51] was 0.284 µM (active). The GI50 [52] was 0.5 µM (active), the GI50 [53] was 9.18 µM (inactive) and the GI50 [54] was 0.217 µM (active). For the same molecule, the GI50 [55] was 9.44 µM, the GI50 [56] was 0.78 µM (active) and the GI50 [57] was 1.3 µM (inactive). For the same molecule, the GI50 [58] was 0.238 µM (active), the GI50 [59] was 2.85 µM (inactive) and the GI50 [60] was 2.22 µM (inactive). The GI50 [61] was 8.97 µM (inactive), the GI50 [62] was 0.627 µM (active) and the GI50 [63] was 0.18 µM (active). For the same molecule, the GI50 [64] was < 0.039 µM (active) and the GI50 [65] was 0.766 µM (active).

For `COc1cc(/C=C/C(=O)C(C)(C)C)cc(OC)c1OC`, the GI50 [1] was > 100 µM (inactive), the GI50 [2] was 19.7 µM (inactive) and the GI50 [3] was > 100 µM (inactive). For the same molecule, the GI50 [4] was 32.7 µM (inactive), the GI50 [6] was 32.7 µM (inactive) and the GI50 [7] was 40 µM (inactive). The GI50 [8] was 38.9 µM (inactive), the GI50 [9] was 33.3 µM (inactive) and the GI50 [10] was 48.2 µM (inactive). The GI50 [11] was 28.4 µM (inactive), the GI50 [12] was 25.9 µM (inactive) and the GI50 [13] was 33.9 µM (inactive). The GI50 [14] was 29 µM (inactive), the GI50 [15] was 34.3 µM (inactive) and the GI50 [16] was 28.1 µM (inactive). The GI50 [17] was 51.1 µM (inactive), the GI50 [18] was 30.2 µM (inactive) and the GI50 [19] was 37.9 µM (inactive). For the same molecule, the GI50 [20] was 40.1 µM (inactive), the GI50 [21] was 29.9 µM (inactive) and the GI50 [22] was 71.8 µM (inactive). For the same molecule, the GI50 [23] was 33.3 µM (inactive), the GI50 [24] was 42.3 µM (inactive) and the GI50 [26] was 29.9 µM (inactive). For the same molecule, the GI50 [27] was 37.6 µM (inactive), the GI50 [28] was > 100 µM (inactive) and the GI50 [29] was 36.9 µM (inactive). The GI50 [31] was 50.1 µM (inactive), the GI50 [32] was 34.3 µM (inactive) and the GI50 [35] was 32.8 µM (inactive). The GI50 [37] was 32.2 µM (inactive), the GI50 [38] was > 100 µM (inactive) and the GI50 [39] was 33.4 µM (inactive). The GI50 [40] was 39.7 µM (inactive), the GI50 [41] was 29.8 µM (inactive) and the GI50 [44] was 38 µM (inactive). The GI50 [45] was 37.8 µM (inactive), the GI50 [46] was 21.1 µM (inactive) and the GI50 [47] was > 100 µM (inactive). For the same molecule, the GI50 [48] was 45.7 µM (inactive), the GI50 [49] was 41.1 µM (inactive) and the GI50 [51] was 33.2 µM (inactive). For the same molecule, the GI50 [52] was 63 µM (inactive), the GI50 [53] was 33.6 µM (inactive) and the GI50 [54] was 53.7 µM (inactive). For the same molecule, the GI50 [55] was 61.8 µM, the GI50 [56] was 31.8 µM (inactive) and the GI50 [57] was 14.8 µM (inactive). For the same molecule, the GI50 [58] was 22.8 µM (inactive), the GI50 [59] was 37.2 µM (inactive) and the GI50 [61] was > 100 µM (inactive). The GI50 [62] was 82 µM (inactive), the GI50 [63] was 25.6 µM (inactive) and the GI50 [64] was 25.5 µM (inactive). For the same molecule, the GI50 [65] was 24.8 µM (inactive).
